Measurements: US7410975B2, “Small molecule toll-like receptor (TLR) antagonists” (Coley Pharmaceutical Group, Inc., priority 2003, dated 2008)
Structures can show the parent of a compound that is named as a salt.

Target: T1, human TLR9 (hTLR9) (Homo sapiens, UniProt Q9NR96)
T1 construct: expressed in transfected cells
T1 sequence (Q9NR96 26-1032): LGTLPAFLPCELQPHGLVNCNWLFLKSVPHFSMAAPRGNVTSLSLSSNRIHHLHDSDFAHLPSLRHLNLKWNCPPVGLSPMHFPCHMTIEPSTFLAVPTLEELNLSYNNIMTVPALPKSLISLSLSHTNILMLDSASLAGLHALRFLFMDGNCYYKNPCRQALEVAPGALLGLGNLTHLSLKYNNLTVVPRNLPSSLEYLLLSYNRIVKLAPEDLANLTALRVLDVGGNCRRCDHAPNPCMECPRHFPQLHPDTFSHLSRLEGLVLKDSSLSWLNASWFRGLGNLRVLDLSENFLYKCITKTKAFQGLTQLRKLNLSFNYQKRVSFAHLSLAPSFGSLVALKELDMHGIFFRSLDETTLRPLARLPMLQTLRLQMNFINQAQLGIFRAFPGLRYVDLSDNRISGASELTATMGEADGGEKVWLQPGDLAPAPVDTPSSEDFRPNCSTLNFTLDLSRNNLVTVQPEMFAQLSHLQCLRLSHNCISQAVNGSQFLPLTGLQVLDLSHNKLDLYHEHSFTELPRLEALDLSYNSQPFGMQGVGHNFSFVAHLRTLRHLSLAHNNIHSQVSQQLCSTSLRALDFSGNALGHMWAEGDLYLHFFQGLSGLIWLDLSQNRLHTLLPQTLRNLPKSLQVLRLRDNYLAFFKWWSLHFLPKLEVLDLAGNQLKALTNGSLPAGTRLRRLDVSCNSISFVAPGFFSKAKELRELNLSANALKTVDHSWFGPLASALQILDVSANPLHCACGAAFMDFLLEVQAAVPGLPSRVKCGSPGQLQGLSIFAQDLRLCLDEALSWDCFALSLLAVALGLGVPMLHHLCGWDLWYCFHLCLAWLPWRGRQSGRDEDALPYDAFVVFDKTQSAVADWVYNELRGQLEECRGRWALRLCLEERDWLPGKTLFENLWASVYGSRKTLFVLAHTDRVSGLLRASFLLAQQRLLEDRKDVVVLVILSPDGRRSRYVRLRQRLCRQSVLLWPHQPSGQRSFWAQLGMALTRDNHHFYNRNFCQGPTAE
Test: Antagonist screen, hTLR9-NFκB-293 cells, 6× NF-κB-luciferase reporter, with EC50 of CpG ODN 2006
Format: cell-based
Details: compound at 0.5, 5, 50 μg/ml; EC50 concentration of CpG ODN 2006; 16 h; NF-κB-luciferase
Method in brief: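 Luciferase fold induction was compared with the ligand-alone baseline, and antagonism was scored by the lowest concentration giving clear down-regulation.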

SMILES	hTLR9 (inhibitory effect, antagonist score)
COc1cc2nc(N3CCN(C(=O)C4COc5ccccc5O4)CC3)nc(N)c2cc1OC.CS(=O)(=O)O (stereo not shown) [compound 858, Doxazosin mesylate]	13 (compounds for which there was clear down regulation at 0.5 μg/ml, 5 μg/ml, and 50 μg/ml)
COc1cc2nc(N3CCN(C(=O)C4CCCO4)CC3)nc(N)c2cc1OC.Cl (stereo not shown) [compound 751, Terazosin hydrochloride]	13 (compounds for which there was clear down regulation at 0.5 μg/ml, 5 μg/ml, and 50 μg/ml)
CCN(CC)CCCC(C)Nc1nc(/C=C/c2ccc(Cl)cc2)nc2cc3ccccc3cc12 (stereo not shown) [compound 2000]	13 (compounds for which there was clear down regulation at 0.5 μg/ml, 5 μg/ml, and 50 μg/ml)
CCN(CC)CCCNc1nc(-c2ccccc2)nc2ccccc12 [compound 2001]	13 (compounds for which there was clear down regulation at 0.5 μg/ml, 5 μg/ml, and 50 μg/ml)
CN(C)C(=O)C(CCN1CCC(O)(c2ccc(Cl)cc2)CC1)(c1ccccc1)c1ccccc1 [compound 144, Loperamidehydrochloride]	12 (compounds for which there was clear down regulation at 5 μg/ml and 50 μg/ml)
COc1cc2c(cc1O)C[C@H]1c3c(cc(O)c(OC)c3-2)CCN1C [compound 600, Boldine]	12 (compounds for which there was clear down regulation at 5 μg/ml and 50 μg/ml)
CN1CCc2cccc3c2[C@H]1Cc1ccc(O)c(O)c1-3.Cl [compound 101, Apomorphinehydrochloride (R, —)]	12 (compounds for which there was clear down regulation at 5 μg/ml and 50 μg/ml)
CN1CCc2cc3c(c4c2C1Cc1ccccc1-4)OCO3.Cl (stereo not shown) [compound 669, Remerine hydrochloride]	— (compounds for which there was no clear down regulation even at 50 μg/ml)
CC(C)(C)c1ccc(C(O)CCCN2CCC(C(O)(c3ccccc3)c3ccccc3)CC2)cc1 (stereo not shown) [compound 138, Terfenadine]	12 (compounds for which there was clear down regulation at 5 μg/ml and 50 μg/ml)

Same assay, conditions: hTLR9-NFκB-293 cells, with EC50 of CpG ODN 2006; compound at 0.5, 5 and 50 μg/ml

SMILES	hTLR9 (inhibitory effect)
O=C(CN1CCCC1)Nc1c2c(nc3ccccc13)N(c1ccccc1)CC2 [compound 1244]	12 (compounds for which there was clear down regulation at 5 μg/ml and 50 μg/ml)
O=c1c2c(nc(NCCO)n1-c1ccccc1)-c1ccccc1CC21CCCC1 [compound 891]	11 (compounds for which there was clear down regulation only at 50 μg/ml)
CCCCCCCCCCCC(=O)Nc1c2c(nc3ccccc13)N(C)CC2 [compound 1334]	11 (compounds for which there was clear down regulation only at 50 μg/ml)
CN1CCc2c1nc1ccccc1c2NC(=O)CN1CCCCCC1 [compound 1003]	13 (compounds for which there was clear down regulation at 0.5 μg/ml, 5 μg/ml, and 50 μg/ml)
Nc1c2c(nc3ccccc13)N(Cc1ccccc1)CC2 [compound 1217, 1-Benzyl-2,3-dihydro-1H-pyrrolo[2,3-b]quinolin-4-ylamine]	13 (compounds for which there was clear down regulation at 0.5 μg/ml, 5 μg/ml, and 50 μg/ml)
CN1CCc2c1nc1ccc(Br)cc1c2N [compound 1142, 6-Bromo-1-methyl-2,3-dihydro-1H-pyrrolo[2,3-b]quinolin-4-ylamine]	13 (compounds for which there was clear down regulation at 0.5 μg/ml, 5 μg/ml, and 50 μg/ml)
Cc1ccc(-n2c(NCCO)nc3c(c2=O)C2(CCCCC2)Cc2ccccc2-3)cc1 [compound 1137]	11 (compounds for which there was clear down regulation only at 50 μg/ml)
COc1cc2cc3c4cc(OC)c(OC)cc4cc[n+]3c(C)c2cc1OC [compound 431, Coralyne chloridehydrate]	13 (compounds for which there was clear down regulation at 0.5 μg/ml, 5 μg/ml, and 50 μg/ml)
CN1CCCCc2c1nc1ccccc1c2N [compound 1185, 1-Methyl-2,3,4,5-tetrahydro-1H-azepino[2,3-b]quinolin-6-ylamine]	13 (compounds for which there was clear down regulation at 0.5 μg/ml, 5 μg/ml, and 50 μg/ml)
Cc1ccc2nc3c(c(N)c2c1)CCN3C [compound 1091, 1,6-Dimethyl-2,3-dihydro-1H-pyrrolo[2,3-b]quinolin-4-ylamine]	13 (compounds for which there was clear down regulation at 0.5 μg/ml, 5 μg/ml, and 50 μg/ml)
NNc1nc2c(c(=O)n1C1CCCC1)C1(CCCC1)Cc1ccccc1-2 [compound 1248]	— (compounds for which there was no clear down regulation even at 50 μg/ml)
Cn1c(NN)nc2c(c1=O)C1(CCCC1)Cc1ccccc1-2 [compound 1213]	— (compounds for which there was no clear down regulation even at 50 μg/ml)
O=c1[nH]c(NCCO)nc2c1C1(CCCC1)Cc1ccccc1-2 [compound 1322]	— (compounds for which there was no clear down regulation even at 50 μg/ml)
CN1CCc2c1nc1ccccc1c2NC(=O)CN1CCN(c2ccccc2)CC1 [compound 1212]	12 (compounds for which there was clear down regulation at 5 μg/ml and 50 μg/ml)
O=c1c2c(nc(NCCO)n1Cc1ccccc1)-c1ccccc1CC21CCCC1 [compound 926]	11 (compounds for which there was clear down regulation only at 50 μg/ml)
NNc1nc2c(c(=O)n1-c1ccccc1)C1(CCCC1)Cc1ccccc1-2 [compound 1320]	13 (compounds for which there was clear down regulation at 0.5 μg/ml, 5 μg/ml, and 50 μg/ml)
O=C1c2ccc(S(=O)(=O)c3ccc4c(c3)C(=O)N(c3ccccn3)C4=O)cc2C(=O)N1c1ccccn1 [compound 1163]	11 (compounds for which there was clear down regulation only at 50 μg/ml)
O=C1c2ccc(Oc3ccc(S(=O)(=O)c4ccc(Oc5ccc6c(c5)C(=O)N(c5ccccn5)C6=O)cc4)cc3)cc2C(=O)N1c1ccccn1 [compound 1367]	— (compounds for which there was no clear down regulation even at 50 μg/ml)
COc1ccc2cc3[n+](cc2c1OC)CCc1cc2c(cc1-3)OCO2.[Cl-] [compound 586, Berberine chloride]	— (compounds for which there was no clear down regulation even at 50 μg/ml)
COc1ccc(Cc2nccc3cc(OC)c(OC)cc23)cc1OC.Cl [compound 583, Papaverinehydrochloride]	12 (compounds for which there was clear down regulation at 5 μg/ml and 50 μg/ml)
CCCCCCN(CCCCCC)CC(=O)Nc1c2c(nc3ccccc13)N(C)CC2 [compound 1224]	11 (compounds for which there was clear down regulation only at 50 μg/ml)
CN(C)CCN(Cc1ccc(Cl)cc1)c1ccccn1.Cl [compound 807, Chloro-pyraminehydrochloride]	12 (compounds for which there was clear down regulation at 5 μg/ml and 50 μg/ml)
CCOc1ccc(Cc2nccc3cc(OCC)c(OCC)cc23)cc1OCC.Cl [compound 830, Ethaverinehydrochloride]	11 (compounds for which there was clear down regulation only at 50 μg/ml)
CN1CCc2c1nc1ccccc1c2N [compound 990, 1-Methyl-2,3-dihydro-1H-pyrrolo[2,3-b]quinolin-4-ylamine]	13 (compounds for which there was clear down regulation at 0.5 μg/ml, 5 μg/ml, and 50 μg/ml)
CC[N+](C)(CC)CCC[n+]1c(-c2ccccc2)c2cc(N)ccc2c2ccc(N)cc21.[I-].[I-] [compound 792, Propidium iodide]	12 (compounds for which there was clear down regulation at 5 μg/ml and 50 μg/ml)
